Assay [1] relates to Amblyomma Hebraeum or Variegatum (nymphs). As to the kind of experiment: Arena test in vitro against Amblyomma hebraeum or variegatum (nymphs). It counts as in vivo. To be noted: even up to a dilution of 3.2 μg/cm^2. The protocol:
(§1) This method is carried out in titre plates having 6 wells with a cross-section of 5 cm each, using a computer-supported video system. Each well of the titre plate is lined with a circular filter paper or another suitable carrier material. The substance of formula I to be tested is dissolved in methanol, acetonitrile or another suitable solvent, with ultrasound treatment and heating being employed for poorly-soluble substances. In an amount of 1 to 100 μg/cm^2, the dissolved test substance is placed in the centre of the filter paper on a quadrant or circular area of ca. 2.4 cm^2 radius. 4 of the 6 wells are filled with different test substances or with the same test substance in different dilutions (e.g. 1, 3.2, 5, 10 and 20 μg/cm^2). The 5th well is treated with DEET (N,N-diethyl-m-toluamide) as standard substance. The 6th well is filled with the pure solvent and serves as a control. 60 to 100 larvae or 25 to 50 nymphs or 10 to 25 adults of the parasite to be tested, e.g. ticks, are added to each filter paper, and the system is covered with a pane of glass and positioned under a video camera. At intervals of 5 seconds, the video camera takes individual pictures of all 6 wells. For a qualitative evaluation, these images are observed in a time-lapse as a continuous film, optically following the movements of the parasites on the filter paper and comparing them with the movements in the control well no. 6 or with the standard in the 5th well. A qualitative observation is thus made as to whether the test parasites move evenly over the whole surface of the filter paper and ignore the test substance, or whether and over what period they avoid the treated zone, and what influence the dilution of the test substance has on the behaviour of the test parasites. In this way, neutral and deterring substances are determined. At the same time, the duration of activity of the test substance is determined and compared with that of the standard. By plotting all the images for each individual well over one another, different areas of density are obtained. This represents the frequency at which the parasites visit certain places. This frequency is evaluated statistically and thus quantitatively by the Willcoxon method in a comparison with the control and with the standard. Compounds of Table 1, for example nos.
Arena Test in vitro Against Amblyomma Hebraeum or Variegatum (nymphs)
The test is carried out as described above, with ca. 25 to 50 nymphs being added per well. 10 mg of dissolved test substance is applied to an area of 2.4 cm^2 radius. […] 1.26 to 1.36, 1.40, 1.45, 1.47, 1.95, 1.96, 1.97, 1.137, and 1.139, even up to a dilution of 3.2 μg/cm^2.

The subject of assay [2] is ticks. As to the kind of experiment: Arena test method for testing vermin-deterring substances. It counts as in vivo. To be noted: 1 to 100 μg/cm^2 on filter paper; video evaluation against solvent control and DEET standard. The procedure: Arena Test Method for Testing Vermin-deterring Substances
as §1

In assay [3] the test system is Boophilus Microplus Biarra (larvae). As to the kind of experiment: Arena test in vitro against Boophilus microplus Biarra (larvae). It counts as in vivo. As to conditions: even up to a dilution of 10 μg/cm^2. The procedure:
as §1, with “For a qualitative evaluation, these images are observed in a time-lapse as a continuous film, optically following the movements of the parasites on the filter paper and comparing them with the movements in the control well no.” left out, “A qualitative observation is thus made as to whether the test parasites move evenly over the whole surface of the filter paper and ignore the test substance, or whether and over what period they avoid the treated zone, and what influence the dilution of the test substance has on the behaviour of the test parasites.” left out, “standard.” for “standard. Compounds of Table 1, for example nos.”
Arena Test in vitro Against Boophilus Microplus Biarra (larvae)
The test is carried out as described above, with ca. 60 to 100 larvae being added per well. 10 mg of dissolved test substance is applied to an area of 2.4 cm^2 radius.

Assay [4] has as its system Rhipicephalus Sanguineus (nymphs). As to the kind of experiment: Arena test in vitro against Rhipicephalus sanguineus (nymphs). In kind it is in vivo. As to conditions: even up to a dilution of 10 μg/cm^2. The procedure: as §1, with “For a qualitative evaluation, these images are observed in a time-lapse as a continuous film, optically following the movements of the parasites on the filter paper and comparing them with the movements in the control well no.” left out, “A qualitative observation is thus made as to whether the test parasites move evenly over the whole surface of the filter paper and ignore the test substance, or whether and over what period they avoid the treated zone, and what influence the dilution of the test substance has on the behaviour of the test parasites.” left out, “standard.” for “standard. Compounds of Table 1, for example nos.”
Arena Test in vitro Against Rhipicephalus Sanguineus (nymphs)
A test is carried out analogously to example B using ca. 40 to 50 nymphs.

The test system of assay [5] is certain plant damaging insects. As to conditions: cited from earlier work.

Consider `CC(C)c1ccc(C(O)C2CCCCN2)cc1` (stereo not drawn) [Compound 1.95, 2-[(1-[4-isopropyl-phenyl])(1-hydroxy)methyl]piperidine], for which the long-term deterrent activity entry in assay [1] was “Particularly marked long-term activity”. Further, the “vermin-deterring activity in the arena test” value (shortened to “vermin-deterring activity”) in assay [2] is listed as “excellent activity”. For the same compound, the long-term deterring activity result in assay [3] was “Particularly marked long-term activity”.

As to `CC(C)c1ccc(C(O)C2CCCCN2C)cc1` (stereo not drawn) [Compound 1.96, N-methyl-2-[(1-[4-isopropylphenyl])(1-hydroxy)methyl]-piperidine], in assay [1], the long-term deterrent activity result is “Particularly marked long-term activity”. Moreover, the long-term deterring activity result in assay [4] and in assay [3] was “Particularly marked long-term activity” throughout. For the same compound, the “vermin-deterring activity” value in assay [2] is on record as “excellent activity”.

For `CC1(C)CCCC(C(O)c2ccc(Cl)cc2)N1` (stereo not drawn) [Compound 1.139, 6,6-dimethyl-2-[(1-[4-chlorphenyl])(1-hydroxy)methyl]piperidine], the long-term deterrent activity entry in assay [1] was “Particularly marked long-term activity”. The long-term deterring activity result in assay [4] and in assay [3] was “Particularly marked long-term activity” throughout. In addition, the “vermin-deterring activity” value in assay [2] is on record as “excellent activity”.

For `CCCCCCCCCCCCCCCCCCC(O)C1CCCCN1` (stereo not drawn) [Compound 1.36, 2-[n-(1-hydroxynonadecyl)]piperidine], the long-term deterring activity result in assay [4] was “Particularly marked long-term activity”.

In the case of `CCCCCCCCCCCCCCC(O)C1CCCCN1` (stereo not drawn) [Compound 1.32, 2-[n-(1-hydroxypentade-cyl)]piperidine], the long-term deterring activity result in assay [4] is on record as “Particularly marked long-term activity”.

As to `CCCCCCCCCCC(O)C1CCCCN1C(=O)OCC` (stereo not drawn) [Compound 1.141, N -ethoxycarbonyl--2-[(1-hydroxy)(1-undecycl)]piperidine], the long-term deterring activity entry in assay [3] is reported as “Particularly marked long-term activity”.

For `CN1CCCCC1C(O)c1ccccc1` (stereo not drawn) [Compound 1.45, N-me-thyl-2-[(1-phenyl)(1-hydroxy)methyl]piperidine], the long-term deterrent activity result in assay [1] is “Particularly marked long-term activity”. Moreover, the long-term deterring activity entry in assay [4] and in assay [3] was “Particularly marked long-term activity” throughout. Moreover, the “vermin-deterring activity” value in assay [2] is “excellent activity”.

Take `CC1(C)CCCC(C(O)c2ccc(Cl)cc2)N1` (stereo not drawn) [Compound 1.101, 6,6-dimethyl-2-[(1-[4-chlorphenyl])(1-hydroxy)methyl]piperidine]: the “vermin-deterring activity” value in assay [2] is given as “excellent activity”.

As for `CCCCCCCCCCC(O)C1CCCCN1` (stereo not drawn) [Compound 1.27, 2-[n-(1-hydroxyundecyl)]piperidine], the long-term deterring activity entry in assay [4] is listed as “Particularly marked long-term activity”.

Take `OC(COCc1ccccc1)C1CCCCN1` (stereo not drawn) [Compound 1.137]: in assay [1], the long-term deterrent activity entry was “Particularly marked long-term activity”. For the same compound, the long-term deterring activity entry in assay [4] and in assay [3] was “Particularly marked long-term activity” each time. The “vermin-deterring activity” value in assay [2] is reported as “excellent activity”.

On to `Cc1ccc(C(O)C2CCCCN2)cc1` (stereo not drawn) [Compound 1.89, 2-[(1-[4-methylphenyl])(1-hydroxy)methyl]piperidine], for which, in assay [2], the “vermin-deterring activity” value is “excellent activity”.

As for `CCCCCCCCCCC(O)C1CCCCN1C(C)=O` (stereo not drawn) [Compound 1.140, N-acetyl-2-[(1-hydroxy)(1-undecyl)]piperidine], the long-term deterring activity result in assay [3] was “Particularly marked long-term activity”.

Turning to `OC(c1ccccc1)C1CCCCN1` (stereo not drawn) [Compound 1.44, 2-[(1-phenyl)(1-hydroxy)methyl]piperidine], in assay [2], the “vermin-deterring activity” value is given as “excellent activity”.

Turning to `OC(c1ccccc1)(c1ccc2c(c1)CCO2)C1CCCCN1` (stereo not drawn) [Compound 1.59], the long-term deterring activity entry in assay [4] was “Particularly marked long-term activity”. For the same compound, the “vermin-deterring activity” value in assay [2] is recorded as “excellent activity”.

For the compound `OC(c1ccccc1)C1CCCCN1` (stereo not drawn) [Compound 1.40, 2-[(1-phenyl)(1-hydroxy)methyl]piperidine], the long-term deterrent activity entry in assay [1] is listed as “Particularly marked long-term activity”. The long-term deterring activity entry in assay [4] and in assay [3] was “Particularly marked long-term activity” each time.

In the case of `CCCCCCCCCCCCC(O)C1CCCCN1` (stereo not drawn) [Compound 1.29, 2-[n-(1-hydroxytridecyl)]piperidine], the long-term deterring activity result in assay [4] is on record as “Particularly marked long-term activity”.

With `Cc1ccc(C(O)C2CCCCN2C)cc1` (stereo not drawn) [Compound 1.87, N-methyl-2-[(1-[4-methylphenyl])-(1-hydroxy)methyl]piperidine], the “vermin-deterring activity” value in assay [2] is on record as “excellent activity”.

As to `COc1ccc(C(O)C2CCCCN2)cc1` (stereo not drawn) [Compound 1.97, 2-[(1-[4-methoxyphenyl])(1-hydroxy)methyl]piperidine], the long-term deterrent activity result in assay [1] is listed as “Particularly marked long-term activity”. In addition, the “vermin-deterring activity” value in assay [2] is “excellent activity”. Further, the long-term deterring activity result in assay [3] was “Particularly marked long-term activity”.

For `OC[C@H]1NC[C@H](O)[C@@H](O)[C@@H]1O` [deoxynojirimicin], in assay [5], the “activity as a deterrent” value is given as “slight activity”.

For `CCCCCCCCCCCCCCCCC(O)C1CCCCN1` (stereo not drawn) [Compound 1.34, 2-[n-(1-hydroxyheptadecyl)]piperidine], in assay [4], the long-term deterring activity entry is given as “Particularly marked long-term activity”.

The values are drawn from US6780876B2, “Composition for keeping away vermin” (Novartis Animal Health US, Inc., priority 1998, dated 2004).
